Three molecules from ChEMBL document CHEMBL1201862, “PubChem BioAssay data set” (2004) can be followed below.

Some test systems named below: T47D; 786-0; CCRF-CEM; KM-20L2; NCI/ADR-RES; HOP-62; PC-3; OVCAR-4; SF-539; TK-10; DMS-114; LXFL 529; M14; DMS-273; SNB-78; SN12C; MDA-MB-435; HOP-18; MCF7; SR.
Common to all, as to assay: DTP human tumour cell line panel, 48 h

Structures are written as SMILES.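 Assay format: 96-well plates, 48-hour exposure. Here, GI50 denotes the concentration required for 50% inhibition of growth.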 Active and inactive are the calls of the source. Cut-off read from the data, not from the text of the source: active = GI50 up to about 1.1 µM and inactive = higher.

With `CCC1(OC(=O)CN)C(=O)OCc2c1cc1n(c2=O)Cc2cc3ccccc3nc2-1` (centres undefined), the GI50 in the assay with T47D is 12 nM (active); with 786-0, 10 nM (active); with CCRF-CEM, 10 nM (active); in the assay with KM-20L2 it was 124 nM (active); in the assay on NCI/ADR-RES, 11.8 nM (active); in the assay with HOP-62 it was 10 nM (active). Also, the GI50 was 66.1 nM (active) in the assay with PC-3; 120 nM (active) in the assay with OVCAR-4; 10 nM (active) in the assay on SF-539; 516 nM (active) in the assay on TK-10; 9.89 nM (active) in the assay with DMS-114; 546 nM (active) with LXFL 529. The GI50 in the assay on M14 was 10 nM (active); in the assay on DMS-273, 4.71 nM (active); in the assay on SNB-78 it was 738 nM (active); in the assay with SN12C it was 11.3 nM (active); in the assay with MDA-MB-435, 56.4 nM (active); with HOP-18, 97.5 nM (active). Further, the GI50 in the assay with MCF7 and with SR was 10 nM (active) in each case.

For the molecule `CC(C)(C)C(=O)OCC1C(=O)OCC1C(=O)N1Cc2cc3ccccc3nc2C1` (centres undefined), the GI50 is 2380 nM (inactive) with T47D; 2500 nM (inactive) in the assay with 786-0; 711 nM (active) in the assay on CCRF-CEM; 6070 nM (inactive) in the assay on KM-20L2; 4920 nM (inactive) in the assay on NCI/ADR-RES; 14400 nM (inactive) in the assay on HOP-62. For the same molecule, the GI50 in the assay on PC-3 is 10900 nM (inactive); in the assay on OVCAR-4 it was 2380 nM (inactive); in the assay on SF-539, 4460 nM (inactive); in the assay on TK-10 it was 2150 nM (inactive); in the assay with DMS-114 it was 4810 nM (inactive); in the assay on LXFL 529 it was 1470 nM (inactive). In addition, the GI50 with M14 is 2800 nM (inactive); in the assay on DMS-273, 3040 nM (inactive); in the assay on SNB-78 it was 1530 nM (inactive); with SN12C, 5280 nM (inactive); with MDA-MB-435 it was 3900 nM (inactive); in the assay on HOP-18, 2610 nM (inactive). In addition, the GI50 was 3470 nM (inactive) in the assay on MCF7 and 757 nM (active) in the assay with SR.

`Cc1ccc(CCC(=O)C(=O)O)s1`: the GI50 in the assay on CCRF-CEM was > 100000 nM (inactive); in the assay with KM-20L2, > 100000 nM (inactive); with HOP-62, > 100000 nM (inactive); in the assay on OVCAR-4, > 100000 nM (inactive); in the assay with SF-539, > 100000 nM (inactive); in the assay on TK-10 it was 78700 nM (inactive). The GI50 with DMS-114, in the assay with LXFL 529, in the assay on M14, in the assay on DMS-273, in the assay on SNB-78 and in the assay on SN12C was > 100000 nM (inactive) in each case. Further, the GI50 in the assay on HOP-18 and in the assay with SR was > 100000 nM (inactive) throughout.

In general, GI50 refers to the concentration giving 50% growth inhibition.
